Details: for log10 BCF / log10 biotransformation half-life (days): fish

Row | Compound | melting point | boiling point | other results
1 | OC(c1ccc(F)cc1)(c1cncnc1)c1ccccc1Cl (configuration not stated) | 126 °C | – | –
2 | CCCC(=O)Cl | -89 °C | 102 °C | –
3 | O=C1CNC(=O)N1 | 220 °C | – | ready biodegradability: readily biodegradable
4 | CCCSSCCC | -85.6 °C | 194 °C | log10 vapour pressure (mmHg): -0.291
5 | C=COC(=O)CC | -80 °C | 91.2 °C | ready biodegradability: readily biodegradable
6 | O=c1[nH]ncc2ccccc12 | 188 °C | – | –
7 | CC1=C2[C@H]3OC(=O)[C@@H](C)[C@@H]3CC[C@@]2(C)C=CC1=O | 175 °C | – | –
8 | CN(C)C(N)=O | 184 °C | – | –
9 | CCCCCCCCCCCC(=O)NCCC[N+](C)(C)CC(=O)[O-] | – | – | ready biodegradability: readily biodegradable
10 | Cc1ccc2ccc3ccccc3c2c1 | 65 °C | 350 °C | –
11 | C[Si](F)(F)c1ccccc1 | – | – | log10 vapour pressure (mmHg): 0.881
12 | O=C(CC(=O)C(F)(F)F)c1cccs1 | 42 °C | – | –
13 | Cc1ccc(S(=O)(=O)F)cc1 | 41.5 °C | – | –
14 | Cc1cc2ccccc2oc1=O | 91 °C | 292 °C | –
15 | COc1c(O)c(Cl)c(Cl)c(Cl)c1Cl | – | – | log10 Koc (L/kg): 2.85; log10 vapour pressure (mmHg): -4.08; log10 BCF: 3.08
16 | Cc1ccc(NO)cc1 | 96 °C | – | –
17 | Clc1ccc(Cl)c(-c2c(Cl)ccc(Cl)c2Cl)c1Cl | – | – | log10 Henry constant (atm·m³/mol): -4.06; log10 Koc (L/kg): 6.01; log10 biotransformation half-life (days): 2.34
18 | Fc1cccnc1 | – | 108 °C | –
19 | Brc1ccc(-c2ccc(Br)cc2)cc1 | 164 °C | 358 °C | ready biodegradability: not readily biodegradable; log10 BCF: 3.92; log10 biotransformation half-life (days): 1.57
20 | c1ccc2nncnc2c1 | 75.8 °C | 238 °C | –
21 | N=C(N)N1CCc2ccccc2C1 | 279 °C | – | –
22 | O=C1OC(OC2OC(=O)C(Cl)=C2Cl)C(Cl)=C1Cl (configuration not stated) | 142 °C | – | –
23 | O=[N+]([O-])CCl | – | 122 °C | –
24 | O=[N+]([O-])c1ccc(C(F)(F)F)cc1 | 39 °C | – | –

Row | Compound | melting point | boiling point | other results
25 | Cc1cc[nH]c(=O)c1 | 130 °C | 308 °C | –
26 | COCCOCCOC | -68 °C | 162 °C | log10 vapour pressure (mmHg): 0.471; ready biodegradability: not readily biodegradable
27 | CC=Cc1ccccc1 | -28.2 °C | 177 °C | –
28 | O=C(O)C(F)(F)C(F)(F)C(F)(F)F | -17.5 °C | 121 °C | log10 vapour pressure (mmHg): 0.804
29 | O=C(O)c1ccc(O)c(O)c1 | – | – | ready biodegradability: readily biodegradable
30 | C1CC2OC2CC1C1CO1 (configuration not stated) | – | 227 °C | ready biodegradability: not readily biodegradable
31 | Cc1cccc2c1CC=C2 | – | 209 °C | –
32 | CCSC(=O)N(CC(C)C)CC(C)C | – | – | log10 Koc (L/kg): 2.11; log10 vapour pressure (mmHg): -1.89
33 | CCCCCCC(=O)O | -7.5 °C | 222 °C | log10 vapour pressure (mmHg): -1.97; ready biodegradability: readily biodegradable
34 | c1ccc2c(c1)CCCO2 | 215 °C | – | –
35 | CCCCCOC(=O)CCCC | -78.8 °C | 204 °C | –
36 | O=C=Nc1ccccc1 | – | 163 °C | log10 vapour pressure (mmHg): 0.41
37 | CCC(CC)COC(=O)CCCCCCCC(=O)OCC(CC)CC | -45 °C | – | –
38 | Clc1cc(Cl)c2oc3c(Cl)c(Cl)ccc3c2c1 | 164 °C | – | log10 vapour pressure (mmHg): -7.48
39 | CCN(C(C)C)C(C)C | – | 126 °C | –
40 | C1COC1 | -97 °C | 47.6 °C | log10 vapour pressure (mmHg): 2.51
41 | CN(C)c1ccc(C(O)(c2ccccc2)c2ccc(N(C)C)cc2)cc1 | 113 °C | – | –
42 | CC(C)CCCC(C)CCCC(C)CCCCC(C)CCCC(C)CCCC(C)C (configuration not stated) | -38 °C | 350 °C | log10 biodegradation half-life (days): 1.62
43 | C=CC(=O)CC | – | 103 °C | –
44 | CCCC(O)C(C)(C)C (configuration not stated) | – | 156 °C | –
45 | Clc1cc(Cl)c(Cl)c(-c2c(Cl)c(Cl)cc(Cl)c2Cl)c1Cl | – | – | log10 Henry constant (atm·m³/mol): -4.74; log10 Koc (L/kg): 6.36; log10 BCF: 5.82
46 | N#CCc1ccccc1C(F)(F)F | 33 °C | – | –
47 | N#Cc1cccc(O)c1 | 80 °C | – | –
48 | c1ccc2cc3cc4cc5ccccc5cc4cc3cc2c1 | 257 °C | – | ready biodegradability: not readily biodegradable
